Experimental data: patent US20180235213A1, “PLANT HORMONE APPLICATION” (The State of Israel Ministry of Agriculture & Rural …, priority 2015, published 2018)

Tested on: Orobanche aegyptiaca seeds
Assay: Orobanche Germination Assay (biological activity after stress treatments)
Assay type: in vivo
Details: with vs without HPC
Experimental: The implementation of the strigolactone analogs necessitates a degree of material stability, to ensure their activity on the plant under various growth conditions. Accordingly, the stability of the strigolactone analog GR24 was tested under different environmental conditions. GR24 in acetone stock solution of 5.6 mM was diluted in double distilled water (DDW) or HPC pre-made gel to a concentration of 0.56 μM in eppendorf tubes and was subjected to the following treatments:
GR24 solutions of 0.56 μM, diluted either in DDW or in HPC pre-made gel in eppendorf tubes were incubated in a dry block heater at temperatures of 4° C., 20° C., 40° C., 60° C. digitally set for periods of 3 h, 1 d, 2 d, 4 d, 5 d and 7 d under ambient light.
GR24 solutions of 0.56 μM, diluted either in DDW or in HPC pre-made gel, each in quartz tubes (15 replicates for each treatment) were exposed to UV radiation of λ=312 nm under UV lamp of 600 or 857 μE intensity for periods of 15 min, 30 min or 18 h.
Biological activity was determined by Orobanche Germination Assay: Approximately 30 to 50 seeds of Orobanche aegyptiaca were spread on a glass fiber filter paper disk (9-mm diameter) and put into sterile petri dishes (9-cm diameter) lined with Whatman filter paper wetted with 3 mL of demineralized water. Petri dishes were sealed with parafilm and incubated at 27° C. for preconditioning. After one week of preconditioning period, the glass fiber filter paper disks with Orobanche seeds were removed from the petri dish and dried for 20 min to remove surplus moisture. The disks were transferred to another petri dish within a filter paper ring (outer diameter of 9 cm; inner diameter of 8 cm) wetted with 0.9 mL of water, which maintained a moist environment during the germination bioassay. Forty microliters of the GR24 test solutions were added to the disks. Untreated GR24 at a 0.56 μM concentration was used as a positive control, water or HPC pre-made gel as negative controls. Germination percent was calculated using the counter cell analysis of the IMAGEJ (http://www.//rsbweb.nih.gov/ij/) software. Germinated seeds were distinguished from non-germinated seeds according to the seedling radicles, which are a few millimeters long and visible under a stereomicroscope (Leica MZFLIII, Leica Microsystems, GmbH).
For each of the GR24 treatments fifteen replicates with 30-40 seeds were tested per treatment with 40 μl of 0.56 μM GR24 test solutions pre-treated as described above. The experiment was repeated three times (n=450 seeds).
Next, GR24 was stabilized with Hydroxypropyl Cellulose (HPC), which is a […] medium. Granular HPC [Sigma-Aldrich Israel Ltd., CAS-No. 9004-64-2] […]

CC1=C[C@H](O/C=C2\Cc3c(n(C)c4ccccc34)C2=O)OC1=O [EGO10]
Orobanche germination % with HPC at 60° C. (60° C., 0 and 24 hours): increased biological activity | Orobanche germination % with HPC at different pH (basic and acidic pH (pH 4, pH 7, pH 10)): increased biological activity
